# Test results published in patent publication US8609727B2, “Dicarboxylic acid derivatives and their use” (Bayer Intellectual Property GmbH, priority 2005, dated 2013).
# Molecular target: T1, Haem-free sGC (recombinant soluble guanylate cyclase) (Rattus norvegicus, UniProt P20595)
# T1 construct: made in house; host or cells: Sf9 insect cells (baculovirus)
# T1 sequence (P20595 1-619): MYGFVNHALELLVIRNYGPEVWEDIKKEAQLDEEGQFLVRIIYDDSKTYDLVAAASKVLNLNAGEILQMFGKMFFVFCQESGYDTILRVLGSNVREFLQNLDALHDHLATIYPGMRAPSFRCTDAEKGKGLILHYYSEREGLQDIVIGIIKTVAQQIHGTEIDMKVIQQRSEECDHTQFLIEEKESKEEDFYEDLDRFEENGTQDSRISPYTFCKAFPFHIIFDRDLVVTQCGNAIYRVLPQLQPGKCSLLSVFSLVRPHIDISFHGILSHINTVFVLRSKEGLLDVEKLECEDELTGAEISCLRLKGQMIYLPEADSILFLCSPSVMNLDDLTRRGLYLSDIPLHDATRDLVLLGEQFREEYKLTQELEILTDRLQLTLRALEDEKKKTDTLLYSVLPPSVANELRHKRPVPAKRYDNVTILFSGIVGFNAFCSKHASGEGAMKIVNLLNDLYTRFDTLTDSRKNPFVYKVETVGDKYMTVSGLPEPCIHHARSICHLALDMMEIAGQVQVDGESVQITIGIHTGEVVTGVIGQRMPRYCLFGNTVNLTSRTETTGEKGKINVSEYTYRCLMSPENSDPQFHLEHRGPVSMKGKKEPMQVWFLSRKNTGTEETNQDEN
# T1 sequence (P19686 1-690 partner): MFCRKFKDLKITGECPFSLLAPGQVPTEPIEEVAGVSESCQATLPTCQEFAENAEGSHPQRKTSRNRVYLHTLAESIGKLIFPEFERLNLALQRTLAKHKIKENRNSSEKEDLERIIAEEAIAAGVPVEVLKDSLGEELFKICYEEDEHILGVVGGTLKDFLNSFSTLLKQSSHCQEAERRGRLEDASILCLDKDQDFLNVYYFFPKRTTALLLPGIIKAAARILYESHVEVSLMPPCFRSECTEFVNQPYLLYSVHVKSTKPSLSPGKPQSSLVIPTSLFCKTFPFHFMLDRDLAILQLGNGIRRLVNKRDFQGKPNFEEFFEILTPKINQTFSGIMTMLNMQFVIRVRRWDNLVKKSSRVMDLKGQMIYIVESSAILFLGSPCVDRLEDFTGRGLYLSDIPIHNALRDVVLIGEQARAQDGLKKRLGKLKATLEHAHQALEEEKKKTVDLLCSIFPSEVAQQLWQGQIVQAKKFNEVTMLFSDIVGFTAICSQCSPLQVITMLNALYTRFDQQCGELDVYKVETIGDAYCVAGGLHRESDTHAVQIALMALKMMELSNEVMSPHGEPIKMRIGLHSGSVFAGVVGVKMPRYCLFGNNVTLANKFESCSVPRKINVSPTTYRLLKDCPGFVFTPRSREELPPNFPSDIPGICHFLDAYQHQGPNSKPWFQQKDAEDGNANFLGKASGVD
# Test: Stimulation of recombinant soluble guanylate cyclase (sGC) in vitro, haem-free enzyme
# Type: biochemical
# Details: 10 μM ODQ, 0.0 μM Example 5
# Procedure: (§1) B-2. Stimulation of Recombinant Soluble Guanylate Cyclase (sGC) In Vitro:
# Investigations on the stimulation of recombinant soluble guanylate cyclase (sGC) by the compounds according to the invention with and without sodium nitroprusside, and with and without the haem-dependent sGC inhibitor 1H-1,2,4-oxadiazole-(4,3a)-quinoxalin-1-one (ODQ) are carried out by the method described in detail in the following reference: M. Hoenicka, E. M. Becker, H. Apeler, T. Sirichoke, H. Schroeder, R. Gerzer and J.-P. Stasch, “Purified soluble guanylyl cyclase expressed in a baculovirus/Sf9 system: Stimulation by YC-1, nitric oxide, and […]”, J. Mol. Med. 77 (1999), 14-23. The haem-free guanylate cyclase is obtained by adding Tween 20 to the sample buffer (0.5% in the final concentration).
# (§2) The activation of sGC by a test substance is reported as n-fold stimulation of the basal activity.
row,Stimulation (n-fold) Haem-free sGC with ODQ alone,SMILES
1,2.0 n-fold,"O=c1onc2cnc3ccccc3n12 [ODQ, 1H-1,2,4-oxadiazole-(4,3a)-quinoxalin-1-one, reference compound]"

# Molecular target: T2, Haem-containing sGC (recombinant soluble guanylate cyclase) (Rattus norvegicus, UniProt P20595)
# T2 construct: made in house; host or cells: Sf9 insect cells (baculovirus)
# T2 sequence (P20595 1-619): T1 sequence (P20595 1-619)
# T2 sequence (P19686 1-690 partner): T1 sequence (P19686 1-690 partner)
# Test: Stimulation of recombinant soluble guanylate cyclase (sGC) in vitro, haem-containing enzyme
# Type: biochemical
# Details: 0.1 μM DEA/NO, 0.0 μM Example 5
# Excerpt: as §1
# Hoenicka, E. M. Becker, H. Apeler, T. Sirichoke, H. Schroeder, R. Gerzer and J.-P. Stasch, “Purified soluble guanylyl cyclase expressed in a baculovirus/Sf9 system: Stimulation by YC-1, nitric oxide, and carbon oxide”, J. Mol. Med. 77 (1999), 14-23. The haem-free guanylate cyclase is obtained by adding Tween 20 to the sample buffer (0.5% in the final concentration).
# as §2
row,SMILES,Stimulation (n-fold) Haem-containing sGC by DEA/NO alone
1,"CCN(CC)[N+]([O-])=NO [DEA/NO, 2-(N,N-diethylamino)diazenolate 2-oxide, reference compound]",78.7 n-fold

# Same assay, conditions: 10 μM ODQ, 0.0 μM Example 5
row,Stimulation (n-fold) Haem-containing sGC with ODQ alone,SMILES
1,38.8 n-fold,"O=c1onc2cnc3ccccc3n12 [ODQ, 1H-1,2,4-oxadiazole-(4,3a)-quinoxalin-1-one, reference compound]"

# Test system: saphenous artery rings
# Test: Vasorelaxant effect in vitro (phenylephrine-contracted artery rings)
# Type: cell-based, Rabbits
# Details: Oryctolagus cuniculus, rabbit saphenous artery rings, contraction induced by phenylephrine
# Procedure: B-1. Vasorelaxant Effect In Vitro:
# Rabbits are anaesthetized and sacrificed by intravenous injection of thiopental sodium (about 50 mg/kg) and exsanguinated. The saphenous artery is removed and divided into rings 3 mm wide. The rings are mounted singly on in each case a pair of triangular hooks open at the end and made of 0.3 mm-thick special wire (Remanium®). Each ring is placed under an initial tension in 5 ml organ baths with Krebs-Henseleit solution which is at 37° C., is gassed with 95% O2/5% CO2 and has the following composition: NaCl 119 mM; KCl 4.8 mM; CaCl2×2H2O 1 mM; MgSO4×7H2O 1.4 mM; KH2PO4 1.2 mM; NaHCO3 25 mM; glucose 10 mM; bovine serum albumin 0.001%. The force of contraction is detected with Statham UC2 cells, amplified and digitized via A/D converters (DAS-1802 HC, Keithley Instruments, Munich) and recorded in parallel on chart recorders. Contractions are induced by addition of phenylephrine.
# After several (generally 4) control cycles, the substance to be investigated is added in each further run in increasing dosage, and the height of the contraction achieved under the influence of the test substance is compared with the height of the contraction reached in the last preceding run. The concentration necessary to reduce the contraction reached in the preceding control by 50% is calculated from this (IC50). The standard application volume is 5 μl. The proportion of DMSO in the bath solution corresponds to 0.1%.
row,SMILES,IC50
1,"O=C(O)c1ccc(CCC(/C=C/c2ccccc2OCc2ccc(CCc3ccccc3)cc2)Cc2ccc(C(=O)O)cc2)cc1 (racemic) [Example 7, 4-[(4E)-3-(4-Carboxybenzyl)-5-(2-{[4-(2-phenylethyl)benzyl]oxy}phenyl)pent-4-en-1-yl]benzoic acid]",0.021 µM
2,"O=C(O)c1ccc(CCC(/C=C/c2ccccc2OCCCC(F)(F)F)Cc2ccc(C(=O)O)cc2)cc1 (racemic) [Example 11, 4-{(4E)-3-(4-Carboxybenzyl)-5-[2-(4,4,4-trifluorobutoxy)phenyl]pent-4-en-1-yl}benzoic Acid]",0.129 µM
3,"COc1ccccc1/C=C/C(CCc1ccc(C(=O)O)cc1)Cc1ccc(C(=O)O)cc1 (racemic) [Example 13, 4-[(4E)-3-(4-Carboxybenzyl)-5-(2-methoxyphenyl)pent-4-en-1-yl]benzoic Acid]",0.0522 µM
4,"CCCCCOc1ccccc1/C=C/C(CCc1ccc(C(=O)O)cc1)Cc1ccc(C(=O)O)cc1 (racemic) [Example 17, 4-{(4E)-3-(4-Carboxybenzyl)-5-[2-(pentyloxy)phenyl]pent-4-en-1-yl}benzoic Acid]",0.0011 µM
5,"O=C(O)c1ccc(CCC(C=Cc2ccccc2OCc2ccc(-c3ccc(C(F)(F)F)cc3)cc2)Cc2ccc(C(=O)O)cc2)cc1 (stereo not shown) [Example 10, 4-[(4E/Z)-3-(4-Carboxybenzyl)-5-(2-{[4′-(trifluoromethyl)biphenyl-4-yl]methoxy}phenyl)pent-4-en-1-yl]benzoic Acid]",0.048 µM

# Next, values leading:
row,IC50,SMILES
1,0.019 µM,"O=C(O)c1ccc(CCC(/C=C/c2ccccc2OCCCCC(F)(F)F)Cc2ccc(C(=O)O)cc2)cc1 (racemic) [Example 42, 4-[(4E)-3-(4-Carboxybenzyl)-5-{2-[(5,5,5-trifluoropentyl)oxy]phenyl}pent-4-en-1-yl]benzoic Acid]"
2,0.09 µM,"O=C(O)c1ccc(CCC(/C=C/c2cc(F)ccc2OCc2ccc(C(F)(F)F)cc2)Cc2ccc(C(=O)O)cc2)cc1 (single isomer, unassigned) [Example 54, 4-[(4E)-3-(4-Carboxybenzyl)-5-(5-fluoro-2-{[4-(trifluoromethyl)benzyl]oxy}phenyl)pent-4-en-1-yl]benzoic Acid]"
3,0.022 µM,"O=C(O)c1ccc(CCC(/C=C/c2ccccc2OCc2ccc(C(F)(C(F)(F)F)C(F)(F)F)cc2)Cc2ccc(C(=O)O)cc2)cc1 (stereo not shown) [Example 44, 4-{(4E)-3-(4-Carboxybenzyl)-5-[2-({4-[1,2,2,2-tetrafluoro-1-(trifluoromethyl)ethyl]benzyl}oxy)-phenyl]pent-4-en-1-yl}benzoic Acid]"
4,0.006 µM,O=C(O)c1ccc(CCC(/C=C/c2ccccc2OCc2ccc(OC(F)(F)F)cc2)Cc2ccc(C(=O)O)cc2)cc1 (stereo not shown) [Example 45]
5,0.004 µM,O=C(O)c1ccc(CCC(/C=C/c2ccccc2OCc2cc(C(F)(F)F)cc(C(F)(F)F)c2)Cc2ccc(C(=O)O)cc2)cc1 (stereo not shown) [Example 48]
6,0.37 µM,O=C(O)c1ccc(CCC(/C=C/c2ccccc2OC(F)(F)c2ccc(C(F)(F)F)cc2)Cc2ccc(C(=O)O)cc2)cc1 (stereo not shown) [Example 50]
7,0.287 µM,O=C(O)c1ccc(CCC(/C=C/c2cc(F)ccc2OCc2ccc(C(F)(F)F)cc2)Cc2ccc(C(=O)O)cc2)cc1 (stereo not shown) [Example 55]
8,0.077 µM,O=C(O)c1ccc(CCC(/C=C/c2cc(F)ccc2OCc2ccc(OC(F)(F)F)cc2)Cc2ccc(C(=O)O)cc2)cc1 (stereo not shown) [Example 56]

# Same assay, conditions: rabbit saphenous artery rings, contraction induced by phenylephrine
row,IC50,SMILES
1,0.00054 µM,"CC(C)(C)c1ccc(COc2ccccc2/C=C/C(CCc2ccc(C(=O)O)cc2)Cc2ccc(C(=O)O)cc2)cc1 (racemic) [Example 2, 4-[(4E)-5-{2-[(4-tert-Butylbenzyl)oxy]phenyl}-3-(4-carboxybenzyl)pent-4-en-1-yl]benzoic Acid]"
2,0.0047 µM,"CC(C)(C)c1ccc(COc2ccccc2/C=C/C(CCc2ccc(C(=O)O)cc2)Cc2ccc(C(=O)O)cc2)cc1 (racemic) [Example 3, 4-[(4E)-5-{2-[(4-tert-Butylbenzyl)oxy]phenyl}-3-(4-carboxybenzyl)pent-4-en-1-yl]benzoic Acid]"
3,0.121 µM,"O=C(O)c1ccc(CCC(/C=C/c2ccccc2OCCCCCc2ccccc2)Cc2ccc(C(=O)O)cc2)cc1 (racemic) [Example 6, 4-((4E)-3-(4-Carboxybenzyl)-5-{2-[(5-phenylpentyl)oxy]phenyl}pent-4-en-1-yl)benzoic Acid]"
